Data published in patent US20050080076A1 (Xanodyne Pharmacal, Inc., priority 2003, published 2005).
Blank lines part the entries; values can stand above or below the molecule they belong to.

Key:
[1] = target: T1, Serotonin 5-HT1A (Homo sapiens, UniProt P08908); test: Receptor binding, Serotonin 5-HT1A
T1 sequence (P08908 1-422): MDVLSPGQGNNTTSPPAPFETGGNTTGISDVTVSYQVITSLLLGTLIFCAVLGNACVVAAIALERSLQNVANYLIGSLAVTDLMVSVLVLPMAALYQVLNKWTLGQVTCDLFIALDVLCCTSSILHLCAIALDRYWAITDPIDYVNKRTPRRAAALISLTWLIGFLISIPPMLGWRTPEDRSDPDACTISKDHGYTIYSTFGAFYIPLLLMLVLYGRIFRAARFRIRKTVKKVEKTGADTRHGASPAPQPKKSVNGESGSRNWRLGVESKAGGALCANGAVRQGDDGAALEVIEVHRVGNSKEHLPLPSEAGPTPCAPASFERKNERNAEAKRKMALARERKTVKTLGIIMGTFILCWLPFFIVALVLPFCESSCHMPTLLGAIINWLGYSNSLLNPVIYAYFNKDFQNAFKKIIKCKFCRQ
Procedure: (§1) Receptor-ligand binding studies were performed as known to one skilled in the art. Compounds evaluated were LMP, the parent compound, the NDM LMP metabolite of LMP, and the sulfoxide metabolite of LMP. These studies verified receptor binding and affinity by the parent compound, as well as identified other potential receptors for the parent compound and its metabolites, and identified and verified receptors and receptor affinity for the metabolites.
(§2) Dopamine receptor affinity included binding to D1, D2, D3, D4, and D5 receptors. Serotonin receptor affinity included binding to 5-HT1A, 5-HT2A, 5-HT2B, 5-HT2, 5-HT5A, 5-HT6, and 5-HT7 receptors. Alpha adrenergic receptor affinity included binding to α1A, α1B, α1C, α2A, α2B, and α2C receptors. Muscarinic receptor affinity included binding to M1, M2, M3, M4, and M5 receptors. Binding to the histamine H1 receptor, the calcium ion channel receptor, and the sodium ion channel receptor were also evaluated. In each of the tables, the following abbreviations are used: LMP indicates the parent compound levomepromazine. NDM LMP indicates the N-desmethyl (N-desmethyl) metabolite. Sulfoxide indicates the sulfoxide metabolite. […] Ki (the inhibition constants of binding) indicate binding affinity.

[2] = Serum concentrations and bioavailability after LMP administration; type: in vivo
[3] = target: Adrenergic α1A (Homo sapiens, UniProt P25100); test: Receptor binding, Adrenergic α1A
Chain of Adrenergic α1A (P25100 whole entry): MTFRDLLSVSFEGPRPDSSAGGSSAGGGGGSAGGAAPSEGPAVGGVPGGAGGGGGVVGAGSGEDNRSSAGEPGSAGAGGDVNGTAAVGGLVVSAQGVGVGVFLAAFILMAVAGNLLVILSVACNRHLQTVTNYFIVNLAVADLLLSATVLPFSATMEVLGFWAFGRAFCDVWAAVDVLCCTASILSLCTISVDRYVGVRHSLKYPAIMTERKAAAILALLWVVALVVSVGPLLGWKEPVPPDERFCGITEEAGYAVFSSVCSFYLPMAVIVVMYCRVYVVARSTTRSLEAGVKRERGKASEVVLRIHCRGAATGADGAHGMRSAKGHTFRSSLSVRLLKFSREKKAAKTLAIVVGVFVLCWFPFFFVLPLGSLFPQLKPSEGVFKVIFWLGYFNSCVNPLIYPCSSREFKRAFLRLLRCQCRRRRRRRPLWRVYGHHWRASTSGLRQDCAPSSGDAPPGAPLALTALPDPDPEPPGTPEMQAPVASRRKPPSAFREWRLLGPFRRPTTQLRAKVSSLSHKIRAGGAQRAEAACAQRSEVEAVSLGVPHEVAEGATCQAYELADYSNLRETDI
Procedure: Receptor-ligand binding studies were performed as known to one skilled in the art. Compounds evaluated were LMP, the parent compound, the NDM LMP metabolite of LMP, and the sulfoxide metabolite of LMP. These studies verified receptor binding and affinity by the parent compound, as well as identified other potential receptors for the parent compound and its metabolites, and identified and verified receptors and receptor affinity for the metabolites. […] Binding to the histamine H1 receptor, the calcium ion channel receptor, and the sodium ion channel receptor were also evaluated. In each of the tables, the following abbreviations are used: LMP indicates the parent compound levomepromazine. NDM LMP indicates the N-desmethyl (N-desmethyl) metabolite. Sulfoxide indicates the sulfoxide metabolite. […] Ki (the inhibition constants of binding) indicate binding affinity.

[4] = target: Dopamine D1 (Homo sapiens, UniProt P21728); test: Receptor binding, Dopamine D1
Chain of Dopamine D1 (P21728 whole entry): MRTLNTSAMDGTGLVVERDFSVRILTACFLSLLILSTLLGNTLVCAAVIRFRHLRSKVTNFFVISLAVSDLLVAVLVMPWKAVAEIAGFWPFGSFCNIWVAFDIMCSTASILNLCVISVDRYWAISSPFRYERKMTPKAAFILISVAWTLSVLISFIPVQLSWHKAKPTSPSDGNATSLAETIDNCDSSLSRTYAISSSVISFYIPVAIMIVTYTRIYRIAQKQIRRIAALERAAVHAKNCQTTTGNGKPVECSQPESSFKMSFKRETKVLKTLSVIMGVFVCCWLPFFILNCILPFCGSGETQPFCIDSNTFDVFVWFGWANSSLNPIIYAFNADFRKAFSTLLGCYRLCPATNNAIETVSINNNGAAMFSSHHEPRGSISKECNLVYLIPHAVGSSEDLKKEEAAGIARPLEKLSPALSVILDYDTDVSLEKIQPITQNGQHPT
Procedure: Receptor-ligand binding studies were performed as known to one skilled in the art.
as §2, with “In each of the tables, the following abbreviations are used: LMP indicates the parent compound levomepromazine. NDM LMP indicates the N-desmethyl (N-desmethyl) metabolite.” left out

[5] = system: dopamine receptors; test: Receptor affinity summary, dopamine receptors; type: binding; parameters: key to Relative Affinity: ≧ indicates greater or equal affinity; = indicates about the same affinity; − indicates no affinity; settings: for Relative Affinity: Dopamine
Procedure: as §1, §2

[6] = Serum protein binding; type: in vitro ADME
[7] = target: Serotonin 5-HT2B (Homo sapiens, UniProt P41595); test: Receptor binding, Serotonin 5-HT2B
Chain of Serotonin 5-HT2B (P41595 whole entry): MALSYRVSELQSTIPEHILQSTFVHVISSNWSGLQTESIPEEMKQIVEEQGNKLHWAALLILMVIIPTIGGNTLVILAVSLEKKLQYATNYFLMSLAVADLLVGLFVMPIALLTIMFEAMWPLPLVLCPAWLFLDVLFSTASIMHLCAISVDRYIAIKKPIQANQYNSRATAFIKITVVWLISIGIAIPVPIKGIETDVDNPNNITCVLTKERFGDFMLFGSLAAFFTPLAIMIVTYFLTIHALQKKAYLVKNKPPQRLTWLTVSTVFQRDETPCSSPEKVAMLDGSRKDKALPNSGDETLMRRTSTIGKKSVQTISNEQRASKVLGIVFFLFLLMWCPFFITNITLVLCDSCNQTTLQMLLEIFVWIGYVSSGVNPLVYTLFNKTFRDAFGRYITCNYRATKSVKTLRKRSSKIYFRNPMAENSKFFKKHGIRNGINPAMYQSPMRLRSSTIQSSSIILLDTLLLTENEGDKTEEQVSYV
Procedure: as §1, §2

[8] = target: Adrenergic α1C (Homo sapiens, UniProt P35348); test: Receptor binding, Adrenergic α1C
Chain of Adrenergic α1C (P35348 whole entry): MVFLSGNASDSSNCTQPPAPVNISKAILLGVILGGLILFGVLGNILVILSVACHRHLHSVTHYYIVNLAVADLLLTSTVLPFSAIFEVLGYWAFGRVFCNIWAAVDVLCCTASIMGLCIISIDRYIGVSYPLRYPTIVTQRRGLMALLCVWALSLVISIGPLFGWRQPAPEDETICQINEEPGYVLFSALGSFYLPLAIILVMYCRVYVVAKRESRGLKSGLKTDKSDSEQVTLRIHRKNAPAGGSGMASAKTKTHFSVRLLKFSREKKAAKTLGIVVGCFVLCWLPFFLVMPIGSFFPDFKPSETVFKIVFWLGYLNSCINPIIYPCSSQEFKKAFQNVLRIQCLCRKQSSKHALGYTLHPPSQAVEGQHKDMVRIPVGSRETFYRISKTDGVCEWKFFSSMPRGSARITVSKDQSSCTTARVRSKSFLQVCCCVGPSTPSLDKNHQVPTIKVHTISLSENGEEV
Procedure: Receptor-ligand binding studies were performed as known to one skilled in the art. […] Binding to the histamine H1 receptor, the calcium ion channel receptor, and the sodium ion channel receptor were also evaluated. […] Sulfoxide indicates the sulfoxide metabolite. […] Ki (the inhibition constants of binding) indicate binding affinity.

[9] = target: Adrenergic α2A (Homo sapiens, UniProt P08913); test: Receptor binding, Adrenergic α2A
Chain of Adrenergic α2A (P08913 whole entry): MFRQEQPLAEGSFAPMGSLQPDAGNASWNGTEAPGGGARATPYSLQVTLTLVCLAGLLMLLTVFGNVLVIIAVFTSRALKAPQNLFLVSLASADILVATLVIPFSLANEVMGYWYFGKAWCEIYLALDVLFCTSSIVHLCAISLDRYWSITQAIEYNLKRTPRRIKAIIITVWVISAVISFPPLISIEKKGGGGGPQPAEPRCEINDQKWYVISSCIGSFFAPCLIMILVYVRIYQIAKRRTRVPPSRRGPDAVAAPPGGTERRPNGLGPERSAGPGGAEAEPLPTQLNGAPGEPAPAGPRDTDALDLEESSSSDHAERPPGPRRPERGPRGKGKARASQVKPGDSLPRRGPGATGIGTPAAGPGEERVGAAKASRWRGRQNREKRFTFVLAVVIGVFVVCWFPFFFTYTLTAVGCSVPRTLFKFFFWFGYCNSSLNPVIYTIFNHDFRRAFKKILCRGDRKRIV
Procedure: as §1, §2

[10] = target: T2, Adrenergic α2B (Homo sapiens, UniProt P18089); test: Receptor binding, Adrenergic α2B
T2 sequence (P18089 1-450): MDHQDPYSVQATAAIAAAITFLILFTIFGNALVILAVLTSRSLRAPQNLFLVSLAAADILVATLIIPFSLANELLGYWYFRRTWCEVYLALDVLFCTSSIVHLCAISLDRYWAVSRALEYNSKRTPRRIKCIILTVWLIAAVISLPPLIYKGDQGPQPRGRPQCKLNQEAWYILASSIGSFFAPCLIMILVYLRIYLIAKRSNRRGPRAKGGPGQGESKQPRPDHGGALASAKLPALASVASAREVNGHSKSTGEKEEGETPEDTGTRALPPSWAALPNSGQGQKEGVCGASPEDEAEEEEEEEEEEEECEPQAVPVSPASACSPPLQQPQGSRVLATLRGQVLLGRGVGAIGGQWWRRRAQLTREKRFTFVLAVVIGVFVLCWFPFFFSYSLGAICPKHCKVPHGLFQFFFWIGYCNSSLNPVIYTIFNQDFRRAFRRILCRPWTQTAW
Procedure: as §1, §2

[11] = system: serotonin receptors; test: Receptor affinity summary, serotonin receptors; type: binding; parameters: key to Relative Affinity: ≧ indicates greater or equal affinity; = indicates about the same affinity; − indicates no affinity; settings: for Relative Affinity: Serotonin
Procedure: as §1, §2

[12] = system: human colon carcinoma cell line (CACO-2 Model); test: Intestinal absorption assay (CACO-2 Model); type: in vitro ADME
[13] = system: Primary human hepatocytes; test: In vitro metabolism in primary human hepatocytes; type: in vitro ADME

Structure (SMILES): COc1ccc2c(c1)N(C[C@H](C)CN(C)C)c1ccccc1[S+]2[O-] (some centres unmarked) [Sulfoxide, levomepromazine sulfoxide]
Ki [1]: > 10000 nM
sulfoxide detection after LMP ([2]; 25 mg LMP intramuscularly): no sulfoxide was detected
sulfoxide concentrations relative to parent compound ([2]; LMP 50 mg to 350 mg orally daily for one week): 2.5 times
sulfoxide formation after LMP ([2]; LMP intravenously, bioavailability study): sulfoxide formation was detected although to a much lower extent compared to the oral formulation
total serum concentrations relative to parent LMP or NDM LMP ([2]; in vivo): 1.5-3.0 fold
Ki [3]: 141 nM
Ki [4]: > 10000 nM
binding affinity to dopamine receptors (in words) [5]: essentially no binding affinity
Relative Affinity [5]: −
free fraction (less protein binding), relative ([6]; relative to LMP or NDM LMP): 20 fold
Ki [7]: > 10000 nM
Ki [8]: 193 nM
Ki [9]: > 10000 nM
Ki [10]: > 10000 nM
binding affinity to serotonin receptors (in words) [11]: essentially no binding affinity
Relative Affinity [11]: −

Structure (SMILES): COc1ccc2c(c1)N(C[C@H](C)CN(C)C)c1ccccc1S2 [LMP, Levomepromazine]
Ki [1]: 827 nM
bioavailability ([2]; in vivo, 25 mg oral formulation compared to 25 mg intravenous dose, read-out: absolute bioavailability): ~20%
Ki [7]: 19 nM
Ki [10]: 25 nM

Ki [1]: 641 nM
Ki [4]: 99 nM
Relative Affinity [5]: LMP = NDM LMP
fraction unbound ([6]; serum): 0.01
Ki [7]: 27 nM
Ki [9]: 239 nM
Ki [10]: 48 nM
Relative Affinity [11]: LMP = NDM LMP
apical to basolateral permeability coefficient relative to parent LMP [12]: 1.5 fold
gut wall (enterocyte) metabolism relative to parent LMP [12]: occurs to a lower extent
percent recovered through the system relative to parent LMP [12]: 1.5-2.0 fold
Structure (SMILES): CNCC(C)CN1c2ccccc2Sc2ccc(OC)cc21 (stereo not drawn) [NDM LMP, R(+) 2-methoxy-10-2-methyl-3-monomethylaminopropyl phenothiazine]
Phase I biotransformation [13]: metabolized to only one putative primary amine metabolite
Phase II biotransformation (conjugation) [13]: did not appear to undergo any Phase II biotransformation
metabolic stability relative to LMP [13]: much more metabolically stable than its LMP parent compound
sulfoxide metabolite formation [13]: no detectable sulfoxide metabolites were formed
